Test results as given in ChEMBL document CHEMBL1201862, “PubChem BioAssay data set” (2004).
Active and inactive are the calls of the source.

Key:
[1] = biological target: T1, Trace amine-associated receptor 1 (Homo sapiens, UniProt Q96RJ0); assay: Counterscreen for agonists of the human trace amine associated receptor 1 (hTAAR1): Fluorescence-based cell-based high throughput dose response assay to identify hTAAR1 agonist that also desensitize TAAR1 receptor response.; assay type: functional
T1 sequence (Q96RJ0 whole entry): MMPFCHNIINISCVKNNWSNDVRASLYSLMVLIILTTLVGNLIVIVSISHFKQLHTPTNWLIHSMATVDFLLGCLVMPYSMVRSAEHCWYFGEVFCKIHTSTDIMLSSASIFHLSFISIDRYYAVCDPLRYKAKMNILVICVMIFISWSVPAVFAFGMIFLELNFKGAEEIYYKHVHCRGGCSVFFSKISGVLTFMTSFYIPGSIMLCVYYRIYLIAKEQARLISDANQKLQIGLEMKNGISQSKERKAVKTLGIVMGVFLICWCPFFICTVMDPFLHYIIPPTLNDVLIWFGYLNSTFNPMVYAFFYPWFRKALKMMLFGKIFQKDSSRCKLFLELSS

cells [2] = assay type: functional, cell-based
[3] = biological target: T1, Trace amine-associated receptor 1; assay: Fluorescence-based cell-based high throughput dose response assay to identify agonists of the human trace amine associated receptor 1 (TAAR1).; assay type: functional
cells [4] = assay type: functional, cell-based; remark: listed apart in the source
[5] = cytotoxicity toward NIH3T3 fibroblasts, dose response, counter-screen, cell-based, ATP luminescence, mouse fibroblasts (AID 2010); assay type: functional;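 note: cells exposed to compound for about 90 hours before reading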
[6] = inhibitors of intracellular T. cruzi replication, confirmation, NIH3T3 host cells, beta-gal luminescence (AID 2044); assay type: functional, cell-based;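 note: intracellular parasites grown in NIH/3T3 mouse fibroblasts as host cells; luminescent beta-galactosidase reporter signal from transgenic T. cruzi replicating inside host cells; inhibitors lower the luminescence signal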
Fatty acid synthase [7] = biological target: T2, Fatty acid synthase (Homo sapiens, UniProt P49327); assay: FAS thioesterase domain inhibitors, dose response, biochemical, endpoint fluorescence intensity, uHTS hits (AID 624327); assay type: functional;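 note: fluorescence from hydrolysis of an O-methyl fluorescein acyl ester substrate by the enzyme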
Fatty acid synthase [8] = biological target: T2, Fatty acid synthase; assay: FAS thioesterase domain inhibitors, dose response, biochemical, kinetic fluorescence intensity (AID 624326); assay type: functional;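 note: rate of fluorescence rise from hydrolysis of a fluorogenic O-methyl fluorescein ester substrate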
[9] = biological target: T3, DNA repair protein RAD52 homolog (Homo sapiens, UniProt P43351); assay type: functional, biochemical
T3 sequence (P43351 whole entry): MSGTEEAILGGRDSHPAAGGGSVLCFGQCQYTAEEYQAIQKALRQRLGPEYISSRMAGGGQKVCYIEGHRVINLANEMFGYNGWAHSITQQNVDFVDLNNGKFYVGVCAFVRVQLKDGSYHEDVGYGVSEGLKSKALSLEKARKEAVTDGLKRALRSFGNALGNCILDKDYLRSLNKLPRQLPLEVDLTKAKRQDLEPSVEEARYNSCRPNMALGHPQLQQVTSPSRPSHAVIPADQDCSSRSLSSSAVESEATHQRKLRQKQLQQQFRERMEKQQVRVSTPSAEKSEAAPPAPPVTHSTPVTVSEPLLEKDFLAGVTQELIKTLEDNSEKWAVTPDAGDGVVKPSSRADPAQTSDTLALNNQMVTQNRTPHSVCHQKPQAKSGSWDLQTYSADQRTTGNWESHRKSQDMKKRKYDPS

[10] = biological target: T4, Nuclear receptor subfamily 0 group B member 1 (Homo sapiens, UniProt P51843); assay type: functional, cell-based;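 note: HEK293T cells transfected with SF-1 and DAX-1 plus StAR promoter luciferase reporter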
T4 sequence (P51843 whole entry): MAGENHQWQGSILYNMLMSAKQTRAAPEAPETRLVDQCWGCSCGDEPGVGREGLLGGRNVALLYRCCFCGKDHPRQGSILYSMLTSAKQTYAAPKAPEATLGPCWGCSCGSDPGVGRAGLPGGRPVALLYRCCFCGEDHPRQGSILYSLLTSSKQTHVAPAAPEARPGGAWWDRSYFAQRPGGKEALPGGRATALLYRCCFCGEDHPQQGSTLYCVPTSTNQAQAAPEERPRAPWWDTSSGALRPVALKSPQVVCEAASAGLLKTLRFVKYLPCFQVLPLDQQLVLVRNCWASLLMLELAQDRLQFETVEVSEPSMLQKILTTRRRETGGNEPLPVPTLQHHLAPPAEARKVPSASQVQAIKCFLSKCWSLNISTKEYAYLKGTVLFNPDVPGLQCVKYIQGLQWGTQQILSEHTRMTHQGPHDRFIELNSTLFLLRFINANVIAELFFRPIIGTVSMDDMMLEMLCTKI

cells [11] = assay type: functional, cell-based; remark: listed apart in the source
Beta-lactamase [12] = biological target: Beta-lactamase (Salmonella choleraesuis (strain SC-B67), UniProt Q5J463); assay: Epi-absorbance-based counterscreen for selective VIM-2 inhibitors: dose response biochemical high throughput screening assay to identify inhibitors of TEM-1 serine-beta-lactamase.
Beta-lactamase [13] = biological target: T5, Beta-lactamase (Pseudomonas aeruginosa, UniProt Q79MP6); assay: […] counterscreen for selective VIM-2 inhibitors: dose response biochemical high throughput screening assay to identify inhibitors of IMP-1 metallo-beta-lactamase.
Beta-lactamase [14] = biological target: T5, Beta-lactamase; assay: IMP-1 metallo-beta-lactamase inhibitors, dose response, selectivity assay for VIM-2 inhibitor project, biochemical, epi-absorbance (AID 1920)
[15] = Luminescence Cell-Based Dose Confirmation HTS to Identify Inhibitors of Platelet Dense Granule Release. [Related pubchem assays: 1663 (Primary HTS), 1678 (Summary of Project)]; assay type: functional
cells [16] = assay: cells
[17] = biological target: Luciferin 4-monooxygenase (Photinus pyralis, UniProt P08659); assay: firefly luciferase enzyme inhibitors, dose response, biochemical, luminescence (AID 1891)
Major prion protein = Major prion protein (Homo sapiens, UniProt P04156); assay type: functional, cell-based
Cytochrome P450 3A4 = Cytochrome P450 3A4 (Homo sapiens, UniProt P08684);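 note: CYP3A4 tested as one member of a cytochrome P450 panel screen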
Cytochrome P450 2C19 = Cytochrome P450 2C19 (Homo sapiens, UniProt P33261); assay: Cytochrome panel assay with activity outcomes. Panel member name: p450-cyp2c19 Compounds with AC50 equal or less than 10 uM are considered active; assay type: functional; conditions: read-out: AC50
Cytochrome P450 1A2 = biological target: T6, Cytochrome P450 1A2 (Homo sapiens, UniProt P05177);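 note: PubChem cytochrome P450 panel assay, CYP1A2 panel member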
T6 sequence (P05177 whole entry): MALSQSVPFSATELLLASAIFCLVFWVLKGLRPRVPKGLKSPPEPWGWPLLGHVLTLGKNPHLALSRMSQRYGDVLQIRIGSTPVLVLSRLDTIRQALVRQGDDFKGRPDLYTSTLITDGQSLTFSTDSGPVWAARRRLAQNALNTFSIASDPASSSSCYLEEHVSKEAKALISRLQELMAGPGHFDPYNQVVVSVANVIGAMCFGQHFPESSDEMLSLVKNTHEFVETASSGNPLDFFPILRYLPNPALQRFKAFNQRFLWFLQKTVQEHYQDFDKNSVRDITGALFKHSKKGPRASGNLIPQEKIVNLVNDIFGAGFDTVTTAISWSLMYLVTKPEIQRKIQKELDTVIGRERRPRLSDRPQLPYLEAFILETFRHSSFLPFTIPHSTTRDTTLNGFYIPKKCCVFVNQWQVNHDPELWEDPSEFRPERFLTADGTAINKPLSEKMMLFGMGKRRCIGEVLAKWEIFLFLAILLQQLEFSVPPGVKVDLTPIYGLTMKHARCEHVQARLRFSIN

With `COc1cccc(Nc2nc(C(C)N)cs2)n1` (stereo not drawn) as the compound, how does the IC50 [1] read?
Its IC50 is 4.76 µM (active).

What about the IC50 (cells [2]) of the same compound?
The IC50 was > 29.9 µM (inactive).

What about the EC50 [3] of the same compound?
The EC50 was 1.17 µM (active).

What about the EC50 (cells [4]) of the same compound?
Its EC50 is > 29.9 µM (inactive).

With `Cc1cc(=O)n2nc(-c3ccc(C(C)(C)C)cc3)cc2[nH]1` as the compound, how does the EC50 [5] read?
Its EC50 is > 60 µM (not active).

And the EC50 [6]?
The EC50 was 0.646 µM (active).

And the IC50 (Fatty acid synthase [7])?
The IC50 was 9.51 µM (active).

What about the IC50 (Fatty acid synthase [8]) of the same compound?
The IC50 was 15 µM (active).

What does the source list for `O=[N+]([O-])c1ccc(S(=O)(=O)N/N=C/c2ccc3c(c2)OCO3)cc1`?
IC50 (Fatty acid synthase [7]): 5.55 µM (active); IC50 (Fatty acid synthase [8]): 5.36 µM (active)

With `CN(C)CCCN=c1cc(-c2ccccc2)oc2ccc(Cl)cc12` as the compound, how does the AC50 [9] read?
The AC50 was 4.38 µM (active).

With `Cc1ccc2c(CN(C)Cc3ccccc3)cc(=O)oc2c1` as the compound, how does the IC50 [10] read?
Its IC50 is > 67.6 µM (inactive).

And the IC50 (cells [11])?
The IC50 was > 67.6 µM (inactive).

With `Cc1c(C)c2ccc(OCC(=O)N3CCC[C@@H]3C(=O)O)c(C)c2oc1=O` as the compound, how does the IC50 (Beta-lactamase [12]) read?
Its IC50 is > 59.6 µM (inactive).

And the IC50 (Beta-lactamase [13])?
The IC50 was > 59.6 µM (inactive).

And the IC50 (Beta-lactamase [14])?
Its IC50 is > 59.6 µM (inactive).

With `COC(=O)CSc1nc(COc2ccccc2)nc2ccccc12` as the compound, how does the EC50 [15] read?
Its EC50 is > 112 µM (not active).

What about the IC50 (cells [16]) of the same compound?
Its IC50 is > 138 µM (inactive).

What about the EC50 [17] of the same compound?
The EC50 was > 112 µM (not active).

And the IC50 (Major prion protein)?
The IC50 was 8.48 µM (active).

For `CC(C)(C)C(=O)Nc1nnc(SCC(=O)NCc2cccs2)s1`, which AC50 (Cytochrome P450 3A4) is on record?
The AC50 was 25.1 µM (inconclusive).

What about the IC50 (Beta-lactamase [12]) of the same compound?
Its IC50 is > 59.6 µM (inactive).

What about the AC50 (Cytochrome P450 2C19) of the same compound?
Its AC50 is 3.16 µM (inconclusive).

What about the IC50 (Beta-lactamase [13]) of the same compound?
The IC50 was > 59.6 µM (inactive).

What about the AC50 (Cytochrome P450 1A2) of the same compound?
Its AC50 is 22.4 µM (inconclusive).

And the IC50 (Beta-lactamase [14])?
Its IC50 is > 59.6 µM (inactive).

What does the source list for `C/C(NCc1cccnc1)=C1/C(=O)NC(=O)N(c2ccc(C)cc2)C1=O`?
IC50 (cells [16]): > 138 µM (inactive); IC50 (Major prion protein): 10.2 µM (inactive)
